Data on 2 compounds can be found in US20250058027A1, “Nanoyarns as Drug-Releasing Facilitator” (Amrita Vishwa Vidyapeetham, priority 2023, published 2025).

Where a name gives a salt, the structure may show the parent alone. Read-outs that look alike come from different tables or passages of the source.

Details of this series: species or system Yorkshire-desi crossbred pigs. The settings on record: pig, in vivo. The source says:
To assess the feasibility and safety of the developed device, in vivo implantation of nanostent was done in the porcine bile duct under fluoroscopic guidance via ERCP procedure. In this embodiment, in a total of 14 animals (Yorkshire-desi crossbred pigs), nanostents and control SEMS (SEMS without nanoyarns) were implanted and analyzed for two-time points (3 and 5 months). The fluoroscopic images of the control and nanostent implanted bile duct reveal the proper deployment of the stents in the bile duct. This points to the feasibility of implantation of the nanoyarn-integrated SEMS in vivo.
Endoscopic follow-up was performed in the animals at regular intervals. Blood and bile were collected for analysis of the drug content at intermittent time periods. These were then tested for the presence of GEM and its metabolite by HPLC. GEM and its metabolite DFDU could not be detected in blood up to the limit of its detection i.e., 300 ng. […] The drug content in bile was also undetectable, owing to the drug release happening in a continuously flowing bile fluid. However, the presence of remnant drug could be measured in the nanoyarns taken from explanted stents at 3 and 5 months, to be ˜1000 μg and 50 μg respectively. This confirms that the nanoyarn integrated with the stent can provide a localized drug release over prolonged time periods.

On to `Nc1ccn([C@@H]2O[C@H](CO)[C@@H](O)C2(F)F)c(=O)n1` [GEM, Gemcitabine hydrochloride], for which the “drug content in bile” value is listed as “undetectable”. For the same compound, the drug/metabolite in blood (Yorkshire-desi crossbred) is under 300 ng.

Take `O=c1ccn(C2OC(CO)C(O)C2(F)F)c(=O)[nH]1` (stereo not drawn) [DFDU]: the drug/metabolite in blood is recorded as under 300 ng.
